Test results taken from PubChem BioAssay (NCI).
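A five-concentration, 48-hour dose response in 96-well plates underlies each endpoint, interpolated linearly between surrounding concentrations. Definition used: TGI = concentration required for complete inhibition of growth.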

What follows are molecules tested on DU-145 prostate (assay: DTP human tumour cell line panel, 48 h).
With N#Cc1c(-c2ccccc2)[nH]c2ccc(Cl)cc2c1=O the TGI was > 100 µM. In the case of N#C[C@@H](c1ccccn1)c1ncccc1[N+](=O)[O-], the TGI is reported as > 100 µM. N#Cc1[nH]c(=O)n(-c2ccccc2)c1N was tested, and the TGI was > 10 µM. COC(=O)C1=CS/C(=C2\S[C@@H]3[C@H](S2)[C@H]2C=C[C@@H]3C2)S1 was tested, and the TGI was > 100 µM. CC(=O)Oc1ccc2cc(-c3ccccc3OC(C)=O)c(=O)oc2c1 was tested, and the TGI was > 100 µM. With O=[N+]([O-])c1ccc(S(=O)(=O)n2c3ccc(Br)cc3c3nc4ccccc4nc32)cc1 the TGI was > 100 µM. CC(=O)[C@@H](C)C(=O)N1C(=O)OC[C@@]12[C@@H]1CC[C@@H](C1)C2(C)C was tested, and the TGI was > 100 µM. COc1cc(-c2nc3ccccn3c2/N=C/c2cc(Br)cc(Br)c2O)ccc1O gave a TGI of 84.3 µM. With COC(=O)Nc1nc2ccc(S(=O)(=O)SC)cc2[nH]1 the TGI was 27.1 µM. With CCN(CC)CCSc1c2cc(OC)ccc2nc2ccc(OC)cc12 the TGI was 3.56 µM. For CO/C=C(/C(=O)OC)c1ccccc1COc1cccc(C(F)(F)F)c1, the TGI was > 100 µM. In the case of CCOC(=O)c1ccc(NCc2ccc3oc(=O)c(-c4ccccc4)nc3c2)cc1, the TGI is reported as > 100 µM. C1=Cc2cc3c(c4nccc(c24)N1)OCO3 showed a TGI of 26.6 µM. For CC(C)=CCC(O)[C@](C)(O)[C@H]1[C@H](O)C[C@@]2(C)[C@@H]3CCc4cc(O)c(OC5OC(CO)C(O)C(O)C5O)cc4C3(C)C(=O)C[C@]12C (stereo partly specified), the TGI was > 100 µM. C[N+]1(C)CCc2cc(O)c(O)cc2C1Cc1ccc(O)c(O)c1 (stereo unspecified) was tested, and the TGI was > 100 µM. With O=C1NC2O[C@H](CNC(=O)c3cc(Br)c[nH]3)CC2(O)N1 (mixture of isomers) the TGI was > 100 µM.

These molecules were tested on HT29 colon (assay: DTP human tumour cell line panel, 48 h).
C(/C=C/Nc1ccc(Oc2ccccc2)cc1)=Nc1ccc(Oc2ccccc2)cc1 gave a TGI of 29.7 µM. In the case of Nc1nc(-[n+]2ccc(-c3ccncc3)cc2)nc(Cl)c1Cl, the TGI is reported as > 100 µM. CC(C)OC(=O)/C=C/C(=O)O/C=C/[N+](=O)[O-] was tested, and the TGI was > 100 µM. With C[C@@H](c1ccccc1)n1c(N)c(C#N)c2ccc([N+](=O)[O-])cc2c1=O the TGI was 28.1 µM. In the case of CC1(C)OC(=O)N(c2ccccc2)C12C=Cc1cc([N+](=O)[O-])ccc1O2 (stereo unspecified), the TGI is reported as > 100 µM. With COC1=C(OC)C(=O)C(Cc2c(C)nc3sccn23)=C(C)C1=O the TGI was 32.2 µM. For CCOc1ncn(-c2ccc(NC(=S)NC3OC(CO)C(O)C(O)C3O)cc2)n1 (stereo unspecified), the TGI was > 100 µM. For CC1(C)/C(=C/N=O)N(O)C(C)(C)N1O, the TGI was > 100 µM. COC(=O)c1cc2c(cc1Cl)Sc1nnc(Nc3ccc(C)cc3)n1S2(=O)=O showed a TGI of 15.5 µM. N#Cc1c(-c2ccccc2)[nH]c2ccc(Cl)cc2c1=O was tested, and the TGI was > 100 µM. N#C[C@@H](c1ccccn1)c1ncccc1[N+](=O)[O-] was tested, and the TGI was > 100 µM. N#Cc1[nH]c(=O)n(-c2ccccc2)c1N was tested, and the TGI was > 10 µM. Work on COC(=O)C1=CS/C(=C2\S[C@@H]3[C@H](S2)[C@H]2C=C[C@@H]3C2)S1 yielded a TGI of 92.6 µM. CC(=O)Oc1ccc2cc(-c3ccccc3OC(C)=O)c(=O)oc2c1 was tested, and the TGI was > 100 µM. For O=[N+]([O-])c1ccc(S(=O)(=O)n2c3ccc(Br)cc3c3nc4ccccc4nc32)cc1, the TGI was > 100 µM. With CC(=O)[C@@H](C)C(=O)N1C(=O)OC[C@@]12[C@@H]1CC[C@@H](C1)C2(C)C the TGI was > 100 µM. Molecule COc1cc(-c2nc3ccccn3c2/N=C/c2cc(Br)cc(Br)c2O)ccc1O has a TGI of 57.1 µM. COC(=O)Nc1nc2ccc(S(=O)(=O)SC)cc2[nH]1 was tested, and the TGI was 11.1 µM. CO/C=C(/C(=O)OC)c1ccccc1COc1cccc(C(F)(F)F)c1 was tested, and the TGI was > 100 µM. For CCOC(=O)c1ccc(NCc2ccc3oc(=O)c(-c4ccccc4)nc3c2)cc1, the TGI was > 100 µM. With CC(C)=CCC(O)[C@](C)(O)[C@H]1[C@H](O)C[C@@]2(C)[C@@H]3CCc4cc(O)c(OC5OC(CO)C(O)C(O)C5O)cc4C3(C)C(=O)C[C@]12C (stereo partly specified) the TGI was > 100 µM. With C[N+]1(C)CCc2cc(O)c(O)cc2C1Cc1ccc(O)c(O)c1 (stereo unspecified) the TGI was > 100 µM. In the case of O=C1NC2O[C@H](CNC(=O)c3cc(Br)c[nH]3)CC2(O)N1 (mixture of isomers), the TGI is reported as > 100 µM.

These molecules were tested on SR leukemia (assay: DTP human tumour cell line panel, 48 h).
C(/C=C/Nc1ccc(Oc2ccccc2)cc1)=Nc1ccc(Oc2ccccc2)cc1 gave a TGI of 39.7 µM. With O=C(/C=C/c1ccc2ccccc2c1)NCc1ccc(C(=O)NCCc2ccccc2)cc1 the TGI was > 100 µM. Nc1nc(-[n+]2ccc(-c3ccncc3)cc2)nc(Cl)c1Cl showed a TGI of 41 µM. CC(C)OC(=O)/C=C/C(=O)O/C=C/[N+](=O)[O-] was tested, and the TGI was 71.6 µM. C[C@@H](c1ccccc1)n1c(N)c(C#N)c2ccc([N+](=O)[O-])cc2c1=O gave a TGI of 12.2 µM. In the case of CC1(C)OC(=O)N(c2ccccc2)C12C=Cc1cc([N+](=O)[O-])ccc1O2 (stereo unspecified), the TGI is reported as 75.3 µM. In the case of COC1=C(OC)C(=O)C(Cc2c(C)nc3sccn23)=C(C)C1=O, the TGI is reported as 38.9 µM. CCOc1ncn(-c2ccc(NC(=S)NC3OC(CO)C(O)C(O)C3O)cc2)n1 (stereo unspecified) was tested, and the TGI was > 100 µM. For CC1(C)/C(=C/N=O)N(O)C(C)(C)N1O, the TGI was > 100 µM. COC(=O)c1cc2c(cc1Cl)Sc1nnc(Nc3ccc(C)cc3)n1S2(=O)=O was tested, and the TGI was 6.2 µM. N#Cc1c(-c2ccccc2)[nH]c2ccc(Cl)cc2c1=O was tested, and the TGI was > 100 µM. For N#C[C@@H](c1ccccn1)c1ncccc1[N+](=O)[O-], the TGI was > 100 µM. With N#Cc1[nH]c(=O)n(-c2ccccc2)c1N the TGI was > 10 µM. With COC(=O)C1=CS/C(=C2\S[C@@H]3[C@H](S2)[C@H]2C=C[C@@H]3C2)S1 the TGI was > 100 µM. CC(=O)Oc1ccc2cc(-c3ccccc3OC(C)=O)c(=O)oc2c1 was tested, and the TGI was > 100 µM. With O=[N+]([O-])c1ccc(S(=O)(=O)n2c3ccc(Br)cc3c3nc4ccccc4nc32)cc1 the TGI was > 100 µM. For CC(=O)[C@@H](C)C(=O)N1C(=O)OC[C@@]12[C@@H]1CC[C@@H](C1)C2(C)C, the TGI was > 100 µM.
